Source: publication PMC4579345 (Journal of acquired immune deficiency syndromes (1999), 2015)
Read-outs that look alike come from different tables or passages of the source.

Key:
[1] = test system: HIV RNA; conditions: cited from earlier work
[2] = Clinical and laboratory toxicity monitoring of mothers and infants; conditions: human, in vivo
[3] = cited from earlier work; for Mean decrease in darunavir AUC: third trimester, ref 16 (Colbers, et al)
[4] = Cord blood and maternal plasma darunavir concentrations at delivery; format: in vivo, human
[5] = test system: HIV-1 RNA; assay: Maternal HIV RNA at delivery and infant HIV infection status; format: in vivo; conditions: median (range)
[6] = test system: wild type HIV; conditions: cited from earlier work
[7] = mean (95%CI), ref 16 (Colbers, et al), cited from earlier work
[8] = Ritonavir pharmacokinetic parameters during pregnancy and postpartum; format: in vivo, human; conditions: for AUC(0-t): AUC0-12, twice daily dosing; for AUC(0-t) / Cmax: median (interquartile range)
[9] = of 43 subjects, limit 0.09 μg/mL

**Q.** Which Infected infants ([1]; 12 mothers in the Zorrilla study who remained on therapy at delivery, 15 mothers in the Colbers study) does the source give for CC(C)CN(C[C@@H](O)[C@H](Cc1ccccc1)NC(=O)O[C@H]1CO[C@H]2OCC[C@H]21)S(=O)(=O)c1ccc(N)cc1 [darunavir] here?
**A.** no infected infants

**Q.** What about the “Women with HIV RNA below 1000 copies/mL approaching delivery” value ([1]; once daily dosing, ref 24 (Colbers, et al)) of the same molecule?
**A.** 93%

**Q.** And the “Subjects with detectable HIV RNA (>50 copies/mL) during pregnancy” value ([1]; twice daily dosing, ref 15 (Zorrilla, et al))?
**A.** 3 of 14

**Q.** And the “Subjects indicating side effects of darunavir as a reason for discontinuation” value [2]?
**A.** No subjects

**Q.** What about the “Tolerability during pregnancy and postpartum” value [2] of the same molecule?
**A.** well tolerated

**Q.** What about the “Mean decrease in darunavir AUC” value ([3]; 6 women, twice daily dosing) of the same molecule?
**A.** 34%

**Q.** What about the “Decrease in darunavir AUC” value ([3]; 14 women dosed twice daily, second and third trimesters, ref 15 (Zorrilla, et al)) of the same molecule?
**A.** 17-24%

**Q.** What about the “Mean decrease in darunavir AUC” value ([3]; 18 women, once daily dosing) of the same molecule?
**A.** 22%

**Q.** What about the “Maternal plasma delivery concentration” value ([4]; median (range), samples above the limit of quantitation) of the same molecule?
**A.** 1.98 µg/mL

**Q.** And the “Cord blood samples with concentration below the assay limit of quantitation” value [4, 9]?
**A.** 15

**Q.** And the “Maternal samples with concentration below the assay limit of quantitation” value [4, 9]?
**A.** 11

**Q.** And the “HIV-1 RNA at delivery” value ([5]; Combined N=66)?
**A.** <50 (<50 - 66,142) copies/mL

**Q.** What about the “HIV-1 RNA at delivery” value ([5]; Once Daily Dosing N=32) of the same molecule?
**A.** <50 (<50 - 35,313) copies/mL

**Q.** And the “HIV-1 RNA at delivery” value ([5]; Twice Daily Dosing N=34)?
**A.** 51 (<50 - 66,142) copies/mL

**Q.** What about the “EC50 for wild type HIV” value [6] of the same molecule?
**A.** 0.06 μ/mL

**Q.** And the Free fraction ([7]; 14 women postpartum)?
**A.** 10%

**Q.** What about the Free fraction ([7]; 19 women in the third trimester) of the same molecule?
**A.** 12%

**Q.** With CC(C)c1nc(CN(C)C(=O)N[C@H](C(=O)N[C@@H](Cc2ccccc2)C[C@H](O)[C@H](Cc2ccccc2)NC(=O)OCc2cncs2)C(C)C)cs1 [ritonavir] as the molecule, how does the AUC(0-t) ([8]; female, human, plasma, oral, postpartum) read?
**A.** 5600 ng·h/mL

**Q.** What about the AUC(0-t) ([8]; female, human, plasma, oral, second trimester) of the same molecule?
**A.** 3900 ng·h/mL

**Q.** And the AUC(0-t) ([8]; female, human, plasma, oral, third trimester)?
**A.** 3800 ng·h/mL

**Q.** And the Cmax ([8]; female, human, plasma, oral, Cmax, once daily dosing, postpartum)?
**A.** 640 ng/mL

**Q.** What about the Cmax ([8]; female, human, plasma, oral, Cmax, twice daily dosing, second trimester) of the same molecule?
**A.** 470 ng/mL

**Q.** And the Cmax ([8]; female, human, plasma, oral, Cmax, twice daily dosing, third trimester)?
**A.** 460 ng/mL

**Q.** What about the “Ritonavir exposure during pregnancy” value ([8]; in vivo) of the same molecule?
**A.** reduced

**Q.** And the Cmax ([8]; once daily dosing, second trimester)?
**A.** 290 ng/mL

**Q.** What about the Cmax ([8]; once daily dosing, third trimester) of the same molecule?
**A.** 270 ng/mL
